Results: paper PMC11351612, “Heteronuclear Complexes with Promising Anticancer Activity against Colon Cancer” (Biomedicines, 2024)

Tests used:
[1] = system: differentiated Caco-2/PD7 cells; assay: Cell viability of differentiated (enterocyte-like) Caco-2/PD7 cells; assay type: cell-based, human; settings: for Cell viability of differentiated Caco-2 cells at 2 × IC50: differentiated Caco-2/PD7, concentration = 2 × IC50, 72 h
Method: For cell viability studies of differentiated (enterocyte-like) cells, Caco-2/PD7 cells were seeded on 96-well plates at a density of 4 × 10^3 cells/well and incubated for approximately 10–15 days, changing the culture medium every 3 days, up to reaching confluence—the moment in which the cells were treated with the complexes at concentrations equal to their mean IC50 and 2 × IC50 values.
It is well known that the Caco-2 cell line undergoes spontaneous differentiation into enterocytic-like cells when it reaches confluency. As a result, these cells become polarised, expressing apical and basolateral surfaces with established tight junctions. This allowed for the evaluation of the cytotoxic impact of the complexes on differentiated cells (acting as noncarcinogenic) and a comparison with the viability of undifferentiated cells. Thus, the toxicity of the two heteronuclear compounds has been studied by cell viability experiments by treatment of Caco-2/PD7 cells after differentiation with complexes 1 and 2 at the corresponding concentrations equivalent to IC50 and 2 × IC50 values for 72 h. The results expressed as the % of cell viability observed after treatment with the complexes (or 100% for non-treated control cells) are summarised in Figure S16 (Supplementary Materials). […] However, the cell viability is around 90% even when the cells are treated with double the IC50 concentration.

[2] = target: T1, bovine serum albumin (BSA) (Bos taurus, UniProt P02769); assay: BSA fluorescence quenching (Stern-Volmer); assay type: binding; settings: [BSA] = 50 μM, complex 0-30 μM, 298 K; for Stern-Volmer quenching constant KSV: λexc 295 nm
T1 construct: purchased Sigma Aldrich (St. Louis, MO, USA)
Method: Interaction with bovine serum albumin. BSA was purchased from Sigma Aldrich (St. Louis, MO, USA). A 2 mM stock solution of BSA was prepared by dissolving the commercial powder in PBS at pH 7.4. Afterwards, the real concentration was confirmed using UV-vis spectroscopy (ε280 nm = 43,824 M^−1cm^−1). The heteronuclear complexes were dissolved in DMSO to achieve 6 mM stock solutions, and six aliquots of 2.5 μL were added to a 50 μM solution of BSA in PBS placed in a quartz cuvette of 1 cm optical path. The final concentrations of the complexes in the cuvette were 0, 5, 10, 15, 20, 25, and 30 μM. The fluorescence spectra were recorded on a Jobin-Yvon-Horiba fluorolog FL-3-11 spectrometer. The samples were excited at 295 nm and the emission spectra were recorded in a range from 310 to 450 nm.
The samples were measured 4 min after every addition of the aliquots of the complexes. The fluorescence intensities of the PBS and the complexes were irrelevant under the described conditions. The data were analysed using the Stern–Volmer equation F0/F = 1 + KSV [gold complex] = 1 + Kqτ0[complex] to obtain the Stern–Volmer quenching constant (KSV) and the quenching rate constant (Kq). The binding constant (Kb) was quantified by using the Stern–Volmer equation: log {(F0 − F)/F} = log Kb + n log [complex].
We have carried out fluorescence and UV-Vis spectroscopic experiments to study the affinity of [Cu{Au(Spy)(PTA)}2]PF6 (1) and [Zn{Au(PTA)(Spy)}2](NO3)2 (2) for albumin. These experiments are based on the quenching of the intrinsic tryptophan fluorescence emission undergone by BSA in the presence of increasing concentrations of the trinuclear complexes, which act as quenchers. The intrinsic fluorescence of BSA is susceptible to alterations in its local environment, and the binding or simple electrostatic interaction of molecules can result in modifications to its emission spectrum. Fluorescence quenching experiments have been carried out, observing the emission of tryptophan at 341 nm upon excitation at 295 nm and increasing concentrations of compounds 2 and 3 with BSA. […] The addition of increasing amounts of the complexes to a BSA solution results in a significant reduction in fluorescence intensity without any shift in the emission maximum. The fluorescence data have been analysed using the Stern–Volmer equation so that the binding of the complexes to BSA and the consequent quenching of the emission can be quantified (Table 3). The corresponding plot F0/F versus [complex] (F and F0 are the corresponding intensities in the presence and the absence of the quencher agent) gives a linear plot in both cases (Figure 1B), characteristic of the presence of a single mechanism of quenching, either static or dynamic. […]

Caco-2/TC7 = assay: Intracellular ROS generation (DCFH-DA); assay type: cell-based, human; settings: IC50 concentration, monitored 3 h
Method: Measurement of intracellular ROS generation. The production of ROS was measured in Caco-2/TC7 seeded at a 4000 cells/well concentration in a 96-well plate, as described above. After 24 h, the culture growth medium was removed and cells were washed with PBS 1× and incubated with 20 µM DCFH-DA (Sigma-Aldrich) (100 µL/well) at 37 °C for 45 min in the dark. Afterwards, cells were washed with PBS 1× and then incubated with the tested compounds at their IC50 concentration or with 500 µM of H2O2 for the positive control. The fluorescent emission of DCF was monitored at 530 nm right after the addition of the complexes for 3 h using a microplate reader (λex = 485 nm), measuring every 15 min. The temperature was maintained at 37 °C during the experiment.
It is important to study the effect caused by ROS production upon the treatment of cells with metallic complexes, as it could indicate TrxR (thioredoxin reductase) inhibition and induction of apoptosis. Thus, the production of hydrogen peroxide in Caco-2 cells upon treatment with IC50 concentrations of complexes 1 and 2 has been studied. The method based on the H2O2-sensitive fluorescent probe DCFH-DA (2′-7′dichlorofluorescin diacetate) has been used. […]

T1 sequence (P02769 25-607): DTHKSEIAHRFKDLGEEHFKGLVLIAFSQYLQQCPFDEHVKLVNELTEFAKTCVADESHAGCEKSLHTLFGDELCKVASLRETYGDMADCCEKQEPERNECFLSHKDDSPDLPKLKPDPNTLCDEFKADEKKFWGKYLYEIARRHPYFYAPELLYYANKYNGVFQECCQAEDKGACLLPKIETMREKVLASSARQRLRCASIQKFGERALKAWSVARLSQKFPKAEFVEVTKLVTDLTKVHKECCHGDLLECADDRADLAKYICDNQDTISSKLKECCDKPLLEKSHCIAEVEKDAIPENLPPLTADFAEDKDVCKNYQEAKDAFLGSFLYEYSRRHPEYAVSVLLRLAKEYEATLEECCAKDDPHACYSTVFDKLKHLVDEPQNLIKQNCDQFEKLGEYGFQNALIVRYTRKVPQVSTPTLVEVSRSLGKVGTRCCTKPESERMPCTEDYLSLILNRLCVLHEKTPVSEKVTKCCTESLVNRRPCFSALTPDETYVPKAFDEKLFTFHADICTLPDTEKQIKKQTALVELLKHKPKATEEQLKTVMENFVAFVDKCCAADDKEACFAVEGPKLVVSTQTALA

| Substance | Cell viability of differentiated Caco-2 cells at 2 × IC50 [1] | number of binding sites n [2] | Stern-Volmer quenching constant KSV [2] | H2O2 / ROS formation (DCF fluorescence vs vehicle-treated cells) (Caco-2/TC7) | Cell viability of differentiated Caco-2 cells at IC50 ([1]; differentiated Caco-2/PD7, concentration = IC50, 72 h) |
| --- | --- | --- | --- | --- | --- |
| [Cu{Au(Spy)(PTA)}2]PF6 [compound 1] | around 90% | 1.11 | 5730 M⁻¹ | more markedly |  |
| [Zn{Au(PTA)(Spy)}2](NO3)2 [compound 2] | 87.66 ± 2.85% | 0.95 | 1760 M⁻¹ |  | 92.14 ± 4.22% |
